Reference: patent publication US20100292222A1, “CHEMICAL COMPOUNDS 751” (ASTRAZENECA AB, priority 2009, published 2010)

Molecular target: T1, Androgen Receptor (AR) (Homo sapiens, UniProt P10275, T878A)
T1 construct: cell based immuno-fluorescence assay using the LNCaP prostate epithelial cell line; host or cells: LNCaP clone FGC prostate carcinoma cells
T1 sequence (P10275 1-920 T878A): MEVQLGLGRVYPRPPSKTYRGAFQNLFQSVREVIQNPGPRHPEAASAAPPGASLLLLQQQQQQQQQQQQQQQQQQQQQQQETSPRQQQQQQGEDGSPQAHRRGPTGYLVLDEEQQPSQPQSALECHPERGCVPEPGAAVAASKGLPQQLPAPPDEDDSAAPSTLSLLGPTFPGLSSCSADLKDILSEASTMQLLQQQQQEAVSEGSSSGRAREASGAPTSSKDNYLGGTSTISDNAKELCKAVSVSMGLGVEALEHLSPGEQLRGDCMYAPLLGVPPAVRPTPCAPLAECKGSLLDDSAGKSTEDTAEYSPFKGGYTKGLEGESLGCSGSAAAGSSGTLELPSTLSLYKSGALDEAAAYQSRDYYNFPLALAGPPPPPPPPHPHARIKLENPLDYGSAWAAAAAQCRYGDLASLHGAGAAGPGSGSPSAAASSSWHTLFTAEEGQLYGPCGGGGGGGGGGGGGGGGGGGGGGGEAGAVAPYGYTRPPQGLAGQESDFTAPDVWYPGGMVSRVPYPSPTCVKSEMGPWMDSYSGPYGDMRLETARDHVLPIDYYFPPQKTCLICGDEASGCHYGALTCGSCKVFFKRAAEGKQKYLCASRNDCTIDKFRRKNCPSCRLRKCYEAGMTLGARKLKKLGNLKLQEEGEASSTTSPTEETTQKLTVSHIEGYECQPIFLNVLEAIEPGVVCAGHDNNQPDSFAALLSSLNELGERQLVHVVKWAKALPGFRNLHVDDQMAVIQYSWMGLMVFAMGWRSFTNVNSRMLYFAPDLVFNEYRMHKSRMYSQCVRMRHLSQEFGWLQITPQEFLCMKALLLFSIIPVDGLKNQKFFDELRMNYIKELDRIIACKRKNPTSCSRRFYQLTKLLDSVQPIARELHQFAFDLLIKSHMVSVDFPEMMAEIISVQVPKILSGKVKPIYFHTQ
Experiment: LNCaP Androgen Receptor Down-Regulation Cell Assay
Assay type: cell-based
Conditions: LNCaP prostate carcinoma cell line; 20-22 hours incubation; immunofluorescence; 50% reduction of the AR signal
Method: The ability of compounds to reduce Androgen Receptor (AR) numbers was assessed in a cell based immuno-fluorescence assay using the LNCaP prostate epithelial cell line.
This immunofluorescence end point assay measures the ability of a test compound to down-regulate and reduce measured levels of the AR in the LNCaP prostate carcinoma cell line (LNCaP clone FGC (CRL-1740) obtained from the American Type Culture Collection (ATCC)).
LNCaP cells were cultured in Growth Medium (phenol red free Roswell Park Memorial Institute (RPMI) 1640 (Invitrogen Code no. 11835-063) containing 2 mM L-Glutamine (Invitrogen Code no. 25030-024) and 1% (v/v) Penicillin/Streptomycin (10000 units/ml Penicillin and 10000 μg/ml of Streptomycin utilising penicillin G (sodium salt) and streptomycin sulphate: prepared in normal saline, Invitrogen Code no. 15140122) and 10% (v/v) foetal bovine serum (FBS)) in a 5% CO2 air incubator at 37° C. Cells for assay were harvested from T175 stock flasks by washing once in PBS (phosphate buffered saline, pH 7.4) (Invitrogen Code no. 14190-094) and harvested using 5 mls of 1× Trypsin/ethylaminediaminetetraacetic acid (EDTA) (10× Trypsin-EDTA, 5.0 g/L Trypsin, 2.0 g/L of EDTA•4Na and 8.5 g/L of NaCl, without Phenol Red, Invitrogen Code no. 15400-054) diluted in PBS solution. A 5 ml volume of Growth Medium was added to each flask (as above except that 5% (v/v) charcoal stripped FBS (HyClone Code no. SH30068.03) was included instead of 10% (v/v) FBS). Cells were syringed at least twice using a sterile 18G×1.5″ (1.2×40 mm) broad gauge needle and cell density was measured using a haemocytometer. Cells were further diluted in Growth Medium plus 5% (v/v) charcoal stripped FBS and seeded at a density of 6.5×10^3 cells per well (in 90 ul) into transparent, black, tissue culture treated 96 well plates (Packard, No. 6005182).
Test data reported herein was generated using two different compounds preparation and dosing methods. In method (1) a 10 mM compound stock solution in 100% (v/v) DMSO was serially diluted in 4-fold steps in 100% (v/v) DMSO using a Thermo Scientific Matrix SerialMate. The diluted compounds were then further diluted 1 in 30 in assay media using a Thermo Scientific Matrix PlateMate and a 10 μl aliquot of this dilution was dosed to cells manually using a multi-channel pipette. In method (2) starting with a 10 mM compound stock solution, the Labcyte Echo 550 was used to generate a compound concentration response set diluted in 30 μl of assay media. The Echo 550 is a liquid handler that uses acoustic technology to perform direct microplate-to-microplate transfers of DMSO compound solutions. The system can be programmed to transfer volumes as low as […] in multiple increments between microplates and in so doing generates a serial dilution of compound which is then back-filled to normalise the DMSO is concentration across the dilution range. A 10 μl volume of diluted compound is then dosed to cells using a Thermo Scientific Matrix PlateMate.
Plates were incubated overnight at 37° C., 5% CO2. Wells were then dosed with compound prepared by one of the 2 methods above and further incubated for 20-22 hours at 37° C., 5% CO2. Plates were fixed by the addition of 20 μl of 10% (v/v) formaldehyde solution (in PBS) to each well (final formaldehyde conc.=1.67% (v/v)) and left at room temperature for 10 mins. This fixative solution was removed and cells were washed with 250 μl of PBS/0.05% (v/v) Tween 20 (PBST) using an automated plate washer. This process was then repeated twice more.
Immunostaining was performed at room temperature. Cells were permeabilised by the addition of 35 μl of PBS containing 0.5% Tween 20 and incubated for 1 hour at room temperature. Permeabilisation solution was removed and cells were washed with 250 μl of PBST using an automated plate washer. This process was then repeated twice more. […]

| SMILES | IC50 |
| --- | --- |
| COC[C@@H](CN1CCN(C(C)=O)CC1)Oc1ccc(C2CCN(c3ccc4nnc(C(F)(F)F)n4n3)CC2)cc1 [Example 29, 6-(4-{4-[(1R)-2-(4-acetylpiperazin-1-yl)-1-(methoxymethyl)ethoxy]phenyl}piperidin-1-yl)-3-(trifluoromethyl)[1,2,4]triazolo[4,3-b]pyridazine] | 490 nM |
| COCCN1CCN(CCOc2ccc(C3CCN(c4ccc5nnc(C(F)(F)F)n5n4)CC3)cc2)CC1=O [Example 20, 1-(2-methoxyethyl)-4-[2-(4-{1-[3-(trifluoromethyl)[1,2,4]triazolo[4,3-b]pyridazin-6-yl]piperidin-4-yl}phenoxy)ethyl]piperazin-2-one] | 570 nM |
| CC(=O)N1CCCN(CCOc2ccc(C3CCN(c4ccc5nnc(C(F)(F)F)n5n4)CC3)cc2)CC1 [Example 14, 6-(4-{4-[2-(4-acetyl-1,4-diazepan-1-yl)ethoxy]phenyl}piperidin-1-yl)-3-(trifluoromethyl)[1,2,4]-triazolo[4,3-b]pyridazine] | 160 nM |
| O=C1CN(CCOc2ccc(N3CCN(c4ccc5nnc(C(F)(F)F)n5n4)CC3)cc2)CCN1C1CC1 [Example 5, 1-cyclopropyl-4-[2-(4-{4-[3-(trifluoromethyl)[1,2,4]-triazolo[4,3-b]pyridazin-6-yl]piperazin-1-yl}phenoxy)ethyl]piperazin-2-one] | 7800 nM |
| CC(=O)N1CCN(CCCOc2ccc(N3CCN(c4ccc5nnc(C(F)(F)F)n5n4)CC3)cc2)CC1 [Example 1.1, 6-(4-{4-[3-(4-acetylpiperazin-1-yl)propoxy]phenyl}piperazin-1-yl)-3-(trifluoromethyl)[1,2,4]-triazolo[4,3-b]pyridazine] | 1500 nM |
| CC(C)N1CCN(CCCOc2ccc(C3CCN(c4ccc5nnc(C(F)(F)F)n5n4)CC3)cc2)CC1=O [Example 16, 1-(1-methylethyl)-4-[3-(4-{1-[3-(trifluoromethyl)[1,2,4]triazolo[4,3-b]pyridazin-6-yl]piperidin-4-yl}phenoxy)propyl]piperazin-2-one] | 610 nM |
| COCCN1CCN(CCCOc2ccc(C3CCN(c4ccc5nnc(C(F)(F)F)n5n4)CC3)cc2)CC1=O [Example 17, 1-(2-methoxyethyl)-4-[3-(4-{1-[3-(trifluoromethyl)[1,2,4]triazolo[4,3-b]pyridazin-6-yl]piperidin-4-yl}phenoxy)propyl]piperazin-2-one] | 530 nM |
| C[C@H](O)C(=O)N1CCN(CCOc2ccc(C3CCN(c4ccc5nnc(C(F)(F)F)n5n4)CC3)cc2)CC1 [Example 23, (2S)-1-oxo-1-{4-[2-(4-{1-[3-(trifluoromethyl)[1,2,4]triazolo[4,3-b]pyridazin-6-yl]piperidin-4-yl}phenoxy)ethyl]piperazin-1-yl}propan-2-ol] | 900 nM |
| CN1CCN(CCOc2ccc(C3CCN(c4ccc5nnc(C(F)(F)F)n5n4)CC3)cc2F)CC1=O [Example 13, 4-[2-(2-fluoro-4-{1-[3-(trifluoromethyl)[1,2,4]triazolo[4,3-b]pyridazin-6-yl]piperidin-4-yl}phenoxy)ethyl]-1-methylpiperazin-2-one] | 310 nM |
| CN1CCN(CCOc2ccc(C3CCN(c4ccc5nnc(C(F)(F)F)n5n4)CC3)cn2)CC1=O [Example 11, 1-methyl-4-{2-[(5-{1-[3-(trifluoromethyl)[1,2,4]triazolo[4,3-b]pyridazin-6-yl]piperidin-4-yl}pyridin-2-yl)oxy]ethyl}piperazin-2-one] | 1600 nM |
| CCN1CCN(CCCOc2ccc(C3CCN(c4ccc5nnc(C(F)(F)F)n5n4)CC3)cc2)CC1=O [Example 15, 1-ethyl-4-[3-(4-{1-[3-(trifluoromethyl)[1,2,4]triazolo[4,3-b]pyridazin-6-yl]piperidin-4-yl}phenoxy)propyl]piperazin-2-one] | 240 nM |

The next lines start with the values.

| IC50 | SMILES |
| --- | --- |
| 82 nM | CC(=O)N1CCCN([C@H](C)COc2ccc(C3(O)CCN(c4ccc5nnc(C(F)(F)F)n5n4)CC3)cc2)CC1 (single isomer, unassigned) [Example 45, 4-{4-[2-(4-acetyl-1,4-diazepan-1-yl)propoxy]phenyl}-1-[3-(trifluoromethyl)[1,2,4]triazolo[4,3-b]pyridazin-6-yl]piperidin-4-ol] |
| 73 nM | CN1CCN(CCOc2ccc(C3(O)CCN(c4ccc5nnc(C(F)(F)F)n5n4)CC3)c(F)c2)CC1=O [Example 36, 4-[2-(3-fluoro-4-[4-hydroxy-1-[3-(trifluoromethyl)[1,2,4]triazolo[4,3-b]pyridazin-6-yl]piperidin-4-yl]phenoxy)ethyl]-1-methylpiperazin-2-one] |
| 210 nM | CC(=O)N1CCN(CCOc2ccc(C3(O)CCN(c4ccc5nnc(C(F)(F)F)n5n4)CC3)c(C)c2)CC1 [Example 30, 4-{4-[2-(4-acetylpiperazin-1-yl)ethoxy]-2-methylphenyl}-1-[3-(trifluoromethyl)[1,2,4]-triazolo[4,3-b]pyridazin-6-yl]piperidin-4-ol] |
| 170 nM | CN1CCN(CCCOc2ccc(C3(O)CCN(c4ccc5nnc(C(F)(F)F)n5n4)CC3)c(F)c2)CC1=O [Example 42, 4-[3-(3-fluoro-4-{4-hydroxy-1-[3-(trifluoromethyl)[1,2,4]triazolo[4,3-b]pyridazin-6-yl]piperidin-4-yl}phenoxy)propyl]-1-methylpiperazin-2-one] |
| 36 nM | CC(=O)N1CCN([C@H](C)COc2ccc(C3(O)CCN(c4ccc5nnc(C(F)(F)F)n5n4)CC3)cc2)CC1 (single isomer, unassigned) [Example 44, 4-{4-[2-(4-acetylpiperazin-1-yl)propoxy]phenyl}-1-[3-(trifluoromethyl)[1,2,4]triazolo[4,3-b]pyridazin-6-yl]piperidin-4-ol] |
| 490 nM | O=C1CN(CCOc2ccc(C3(O)CCN(c4ccc5nnc(C(F)(F)F)n5n4)CC3)cc2)CCN1C1CC1 [Example 38, 1-cyclopropyl-4-[2-(4-{4-hydroxy-1-[3-(trifluoromethyl)[1,2,4]triazolo[4,3-b]pyridazin-6-yl]piperidin-4-yl}phenoxy)ethyl]piperazin-2-one] |
